ChEMBL document CHEMBL1926531, “Butamben derivatives enhance BMP-2-stimulated commitment of C2C12 cells into osteoblasts with induction of voltage-gated potassium channel expression” (Bioorg Med Chem Lett, 2011)
Calls of active or inactive are those of the source. The calls are words filed in the database; no cut-off is given here.

How the values were obtained:
[1] = molecular target: T1, Bone morphogenetic protein 2 (Homo sapiens) (UniProt P12643); assay: Increase in human recombinant BMP2-mediated osteoblastogenesis in mouse C2C12 cells assessed as induction of alkaline phosphatase activity after 6 days; type: cell-based
T1 sequence (whole entry): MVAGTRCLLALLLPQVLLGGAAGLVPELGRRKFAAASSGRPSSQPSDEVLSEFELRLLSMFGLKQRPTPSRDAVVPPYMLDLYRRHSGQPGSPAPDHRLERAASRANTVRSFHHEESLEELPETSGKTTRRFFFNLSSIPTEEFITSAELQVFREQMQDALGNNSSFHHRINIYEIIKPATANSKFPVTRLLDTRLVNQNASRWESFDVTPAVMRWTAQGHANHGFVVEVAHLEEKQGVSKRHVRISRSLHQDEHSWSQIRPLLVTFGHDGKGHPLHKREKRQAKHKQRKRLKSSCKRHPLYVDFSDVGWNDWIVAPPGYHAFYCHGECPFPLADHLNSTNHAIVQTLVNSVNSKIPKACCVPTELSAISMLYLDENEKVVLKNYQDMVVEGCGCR

[2] = molecular target: T1, Bone morphogenetic protein 2 (Homo sapiens); assay: Increase in BMP2-mediated osteoblastogenesis in mouse C2C12 cells assessed as increase in BMP4 mRNA level at 10 uM by SYBR-based RT-PCR; type: cell-based
[3] = molecular target: T1, Bone morphogenetic protein 2 (Homo sapiens); assay: Increase in BMP2-mediated osteoblastogenesis in mouse C2C12 cells assessed as increase in BMP6 mRNA level at 10 uM by SYBR-based RT-PCR; type: cell-based
[4] = molecular target: T1, Bone morphogenetic protein 2 (Homo sapiens); assay: Increase in BMP2-mediated osteoblastogenesis in mouse C2C12 cells assessed as increase in BMP7 mRNA level at 10 uM by SYBR-based RT-PCR; type: cell-based
[5] = molecular target: T1, Bone morphogenetic protein 2 (Homo sapiens); assay: Increase in BMP2-mediated osteoblastogenesis in mouse C2C12 cells assessed as increase in BMP9 mRNA level at 10 uM by SYBR-based RT-PCR; type: cell-based
[6] = molecular target: T1, Bone morphogenetic protein 2 (Homo sapiens); assay: Increase in BMP2-mediated osteoblastogenesis in mouse C2C12 cells assessed as increase in OCN mRNA level at 10 uM by SYBR-based RT-PCR; type: cell-based
[7] = tested on: C2C12; assay: Induction of alkaline phosphatase activity in mouse C2C12 cells; type: cell-based
[8] = molecular target: T1, Bone morphogenetic protein 2 (Homo sapiens); assay: Increase in BMP2-mediated osteoblastogenesis assessed as increase in BMP2 protein level in mouse C2C12 cells at 10 uM by Western blot analysis; type: cell-based
[9] = molecular target: T1, Bone morphogenetic protein 2 (Homo sapiens); assay: Increase in BMP2-mediated osteoblastogenesis assessed as increase in BMP7 protein level in mouse C2C12 cells at 10 uM by Western blot analysis; type: cell-based
[10] = molecular target: T1, Bone morphogenetic protein 2 (Homo sapiens); assay: Increase in human recombinant BMP2-mediated osteoblastogenesis assessed as increase in alkaline phosphatase mRNA expression in mouse C2C12 at 10 uM co-treated with BMP2 antagonist noggin on day 3 measured after 6 days by SYBR-based RT-PCR; type: functional
[11] = molecular target: T1, Bone morphogenetic protein 2 (Homo sapiens); assay: Increase in human recombinant BMP2-mediated osteoblastogenesis assessed as increase in alkaline phosphatase activity in mouse C2C12 at 10 uM co-treated with BMP2 antagonist noggin on day 3 measured after 6 days; type: functional
[12] = molecular target: T1, Bone morphogenetic protein 2 (Homo sapiens); assay: Increase in human recombinant BMP2-mediated osteoblastogenesis assessed as increase in alkaline phosphatase mRNA expression in mouse C2C12 cells at 10 uM treated with BMP2 antagonist noggin on day 4 post compound challenge measured after 6 days by SYBR-based RT-PCR; type: functional, cell-based
[13] = molecular target: T1, Bone morphogenetic protein 2 (Homo sapiens); assay: Increase in human recombinant BMP2-mediated osteoblastogenesis assessed as increase in alkaline phosphatase activity in mouse C2C12 cells at 10 uM treated with BMP2 antagonist on day 4 post compound challenge measured after 6 days; type: functional, cell-based
[14] = molecular target: T1, Bone morphogenetic protein 2 (Homo sapiens); assay: Increase in BMP2-mediated osteoblastogenesis assessed as increase in nuclear translocation of Smad at 10 uM by Western blot analysis
[15] = molecular target: T1, Bone morphogenetic protein 2 (Homo sapiens); assay: Increase in BMP2-mediated osteoblastogenesis assessed as increase in phosphorylation of Smad at 10 uM by Western blot analysis
[16] = molecular target: T1, Bone morphogenetic protein 2 (Homo sapiens); assay: Increase in BMP2-mediated osteoblastogenesis assessed as increase in phosphorylated of Smad level in nucleus at 10 uM after 6 hrs by Western blot analysis
[17] = molecular target: T1, Bone morphogenetic protein 2 (Homo sapiens); assay: Increase in BMP2-mediated osteoblastogenesis assessed as increase in Kv1.1 mRNA expression at 10 uM by RT-PCR analysis
[18] = molecular target: T1, Bone morphogenetic protein 2 (Homo sapiens); assay: Increase in BMP2-mediated osteoblastogenesis assessed as increase in Kv1.5 mRNA expression at 10 uM after 3 days by RT-PCR analysis
[19] = molecular target: T1, Bone morphogenetic protein 2 (Homo sapiens); assay: Increase in BMP2-mediated osteoblastogenesis assessed as increase in Kv4.2 mRNA expression at 10 uM after 6 hrs after 3 days by RT-PCR analysis
[20] = molecular target: T1, Bone morphogenetic protein 2 (Homo sapiens); assay: Increase in BMP2-mediated osteoblastogenesis assessed as increase in Kv4.3 mRNA expression at 10 uM after 6 hrs after 3 days by RT-PCR analysis

With `CC(C)OC(=O)c1ccc(N)cc1` the Activity [1] was “Dose-dependent effect”, the Activity [2] was “Active” and the Activity [3] was “Active”. The Activity [4] was “Active”, the Activity [5] was “Active” and the Activity [6] was “Active”. The Activity [7] was “inactive”.

In the case of `CCCCOC(=O)c1ccc(NC(C)=O)cc1`, the Activity [1] is reported as “Dose-dependent effect”, the Activity [2] is reported as “Active” and the Activity [3] is reported as “Active”. For the same molecule, the Activity [4] was “Active”, the Activity [5] was “Active” and the Activity [6] was “Active”. The Activity [8] was “Active”, the Activity [9] was “Active” and the Activity [7] was “inactive”. For the same molecule, the Activity [10] was “inactive”, the Activity [11] was “inactive” and the Activity [12] was “inactive”. The Activity [13] was “inactive”, the Activity [14] was “Active” and the Activity [15] was “Active”. The Activity [16] was “Active”, the Activity [17] was “Active” and the Activity [18] was “Active”. For the same molecule, the Activity [19] was “Active” and the Activity [20] was “Active”.

For `CCCCOC(=O)c1ccc(N)cc1`, the Activity [1] was “Dose-dependent effect”, the Activity [2] was “Active” and the Activity [3] was “Active”. The Activity [4] was “Active”, the Activity [5] was “Active” and the Activity [6] was “Active”. For the same molecule, the Activity [7] was “inactive”.

With `COC(=O)c1ccc(N)cc1` the Activity [1] was “Dose-dependent effect”, the Activity [2] was “Active” and the Activity [3] was “Active”. For the same molecule, the Activity [4] was “Active”, the Activity [5] was “Active” and the Activity [6] was “Active”. The Activity [7] was “inactive”.
